# Experimental data: PMC6013247, “Preclinical characterization of INCB053914, a novel pan-PIM kinase inhibitor, alone and in combination with anticancer agents, in models of hematologic malignancies” (PLoS ONE, 2018)
# Assays:
# [1] = target: DDR2 (Homo sapiens, UniProt Q16832); assay: Kinase selectivity panel; assay type: biochemical; conditions: [ATP] = 1 mM
# [2] = target: ERBB4 (Homo sapiens, UniProt Q15303); assay: Kinase selectivity panel; assay type: biochemical; conditions: [ATP] = 1 mM
# [3] = target: MINK (Homo sapiens, UniProt Q8N4C8); assay: Kinase selectivity panel; assay type: biochemical; conditions: [ATP] = 1 mM
# [4] = target: MSSK1 (Homo sapiens, UniProt Q9UPE1); assay: Kinase selectivity panel; assay type: biochemical; conditions: [ATP] = 1 mM
# MSSK1, sequence (Q9UPE1 whole entry): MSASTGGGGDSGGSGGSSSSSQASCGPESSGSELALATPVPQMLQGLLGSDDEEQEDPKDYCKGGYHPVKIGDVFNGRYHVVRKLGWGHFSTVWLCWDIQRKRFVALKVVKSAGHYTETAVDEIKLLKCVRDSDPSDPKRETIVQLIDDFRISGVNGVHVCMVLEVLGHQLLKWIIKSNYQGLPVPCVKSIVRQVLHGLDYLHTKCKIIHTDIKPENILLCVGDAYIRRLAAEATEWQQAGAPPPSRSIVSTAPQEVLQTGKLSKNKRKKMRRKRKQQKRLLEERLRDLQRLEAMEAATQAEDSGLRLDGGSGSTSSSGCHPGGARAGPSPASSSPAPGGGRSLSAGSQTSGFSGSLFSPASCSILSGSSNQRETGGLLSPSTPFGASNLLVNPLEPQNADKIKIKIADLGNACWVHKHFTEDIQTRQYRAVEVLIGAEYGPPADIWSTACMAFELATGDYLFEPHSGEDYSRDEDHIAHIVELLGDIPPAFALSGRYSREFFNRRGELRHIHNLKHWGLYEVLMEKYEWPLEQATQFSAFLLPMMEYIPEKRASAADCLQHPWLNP
# [5] = target: PDGFR BETA (Homo sapiens, UniProt P09619); assay: Kinase selectivity panel; assay type: biochemical; conditions: [ATP] = 1 mM
# [6] = target: PLK3 (Homo sapiens, UniProt Q9H4B4); assay: Kinase selectivity panel; assay type: biochemical; conditions: [ATP] = 1 mM
# [7] = target: TIE2 (Homo sapiens, UniProt Q02763); assay: Kinase selectivity panel; assay type: biochemical; conditions: [ATP] = 1 mM
# TIE2, sequence (Q02763 23-1124, species assumed): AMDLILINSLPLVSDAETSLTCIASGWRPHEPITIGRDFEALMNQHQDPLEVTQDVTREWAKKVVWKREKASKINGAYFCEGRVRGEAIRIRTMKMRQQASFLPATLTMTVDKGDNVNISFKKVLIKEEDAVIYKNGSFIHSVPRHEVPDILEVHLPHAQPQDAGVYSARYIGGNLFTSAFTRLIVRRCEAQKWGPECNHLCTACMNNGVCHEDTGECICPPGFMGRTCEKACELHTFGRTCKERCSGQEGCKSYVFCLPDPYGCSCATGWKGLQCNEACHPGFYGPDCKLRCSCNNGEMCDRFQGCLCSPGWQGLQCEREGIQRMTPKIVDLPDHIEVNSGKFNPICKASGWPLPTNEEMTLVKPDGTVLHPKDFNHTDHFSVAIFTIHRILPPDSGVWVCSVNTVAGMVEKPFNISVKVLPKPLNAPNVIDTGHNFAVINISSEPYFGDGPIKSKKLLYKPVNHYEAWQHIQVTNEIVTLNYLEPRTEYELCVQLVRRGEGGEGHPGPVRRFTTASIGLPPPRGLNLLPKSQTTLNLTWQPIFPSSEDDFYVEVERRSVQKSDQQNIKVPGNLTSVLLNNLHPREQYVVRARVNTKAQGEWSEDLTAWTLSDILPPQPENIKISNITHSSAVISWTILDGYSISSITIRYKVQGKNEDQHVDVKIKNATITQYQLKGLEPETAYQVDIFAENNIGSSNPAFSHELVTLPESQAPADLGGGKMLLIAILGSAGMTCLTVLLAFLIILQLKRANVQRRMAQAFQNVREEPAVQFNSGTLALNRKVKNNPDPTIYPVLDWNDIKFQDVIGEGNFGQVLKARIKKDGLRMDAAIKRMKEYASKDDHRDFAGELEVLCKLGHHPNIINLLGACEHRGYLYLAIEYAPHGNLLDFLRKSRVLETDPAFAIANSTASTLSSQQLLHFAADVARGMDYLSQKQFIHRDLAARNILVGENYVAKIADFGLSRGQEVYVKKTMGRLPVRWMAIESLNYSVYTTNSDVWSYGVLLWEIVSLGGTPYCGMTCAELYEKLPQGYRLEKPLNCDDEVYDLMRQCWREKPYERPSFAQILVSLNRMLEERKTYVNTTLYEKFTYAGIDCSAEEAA
# [8] = target: TRKA (Homo sapiens, UniProt P04629); assay: Kinase selectivity panel; assay type: biochemical; conditions: [ATP] = 1 mM
# TRKA, sequence (P04629 33-796, species assumed): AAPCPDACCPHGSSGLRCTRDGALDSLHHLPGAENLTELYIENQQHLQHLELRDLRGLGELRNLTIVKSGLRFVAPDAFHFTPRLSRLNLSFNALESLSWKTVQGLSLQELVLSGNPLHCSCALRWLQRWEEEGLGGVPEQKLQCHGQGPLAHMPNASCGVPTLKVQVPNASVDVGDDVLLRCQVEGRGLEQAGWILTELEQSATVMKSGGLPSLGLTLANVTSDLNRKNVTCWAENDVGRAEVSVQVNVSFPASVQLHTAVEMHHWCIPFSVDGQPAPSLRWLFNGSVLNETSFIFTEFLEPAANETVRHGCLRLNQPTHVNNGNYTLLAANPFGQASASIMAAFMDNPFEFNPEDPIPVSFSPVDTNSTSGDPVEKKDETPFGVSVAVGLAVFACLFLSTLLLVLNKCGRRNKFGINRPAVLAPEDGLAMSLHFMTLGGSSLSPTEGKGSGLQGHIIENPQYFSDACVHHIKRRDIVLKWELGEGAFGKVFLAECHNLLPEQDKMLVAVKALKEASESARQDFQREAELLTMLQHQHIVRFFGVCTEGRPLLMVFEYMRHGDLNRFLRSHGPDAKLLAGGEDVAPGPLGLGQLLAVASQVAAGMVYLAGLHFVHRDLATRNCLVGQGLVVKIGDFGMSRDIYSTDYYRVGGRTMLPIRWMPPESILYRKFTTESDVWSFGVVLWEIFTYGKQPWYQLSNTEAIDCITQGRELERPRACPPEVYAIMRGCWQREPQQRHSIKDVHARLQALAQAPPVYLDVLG
# [9] = test system: PIM kinase substrates (p70S6K/S6 and 4E-BP1) in MOLM-16, Pfeiffer and KMS-12-PE/BM cell lines; assay: Western blot of PIM kinase substrate phosphorylation in cell lines; assay type: cell-based; conditions: MOLM-16 (AML), Pfeiffer (DLBCL), KMS-12-PE/BM (MM); 0 to 1 μM, 2 hours
# Procedure: Inhibition of PIM kinase substrate phosphorylation (BAD, S6, p70S6K, and 4E-BP1) and the upregulation of PIM2 (chosen because of its reduced susceptibility to in vitro kinase inhibition) by INCB053914 was determined by incubating 10^6 MOLM-16 (AML), Pfeiffer (DLBCL), KMS-12-PE (MM), and KMS-12-BM (MM) cells with INCB053914 at concentrations ranging from 0 (phosphate-buffered saline [PBS]) to 1 μM for 2 hours in Roswell Park Memorial Institute (RPMI) medium. Cells were centrifuged at 1,000 rpm for 10 minutes and lysed with 1× lysis buffer (Cell Signaling Technology, Danvers, Massachusetts) supplemented with 1 mM phenylmethane sulfonyl fluoride (Sigma-Aldrich, St Louis, Missouri) and proteinase inhibitor cocktail (CalBiochem, San Diego, California). Cell lysates were stored at –80°C before determining phosphoprotein and PIM2 levels by Western blotting using anti-pBAD (S112), anti-p4E-BP1 (S65), pp70S6K (T389), pS6 (S285/S286), and anti-PIM2 antibodies (Cell Signaling Technology).
# [10] = test system: KMS-12-BM (MM) xenografts; assay: Tumor growth in KMS-12-BM (MM) xenograft; assay type: in vivo, mouse; conditions: KMS-12-BM tumors
# Procedure: Female immune compromised (severe combined immunodeficiency [SCID]) mice (5–9 weeks of age; Charles River Laboratories, Wilmington, Massachusetts) were inoculated with MOLM-16, KG-1, or KMS-12-BM cells. A cell suspension in Dulbecco’s phosphate-buffered saline (DPBS) (1 × 10^8 cells/ml) was mixed 1:1 (v/v) with matrigel, and 200 μl was injected subcutaneously into the flank of each mouse. Studies of INCB053914 combination regimens used xenograft models derived from INA-6 (MM) cells or Pfeiffer (DLBCL) cells. INA-6 tumor fragments were injected subcutaneously as brei (100 μl in Hank’s balanced salt solution [HBSS, 1:10 v/v]) into the flank of each mouse; Pfeiffer tumor fragments (1 cm × 1 cm) were directly implanted. The treatment of tumor-bearing mice started 7 to 24 days after tumor inoculation for efficacy studies and approximately 14 to 27 days after tumor inoculation for pharmacodynamic studies.
# For efficacy studies, mice were sorted to obtain approximately equivalent mean tumor volumes in each group. The starting mean tumor volume in efficacy studies for all groups ranged from 158 mm^3 to 249 mm^3, and groups consisted of eight or nine animals. The mean tumor volume in pharmacodynamic studies for all groups ranged from 114 mm^3 to 833 mm^3, and groups consisted of three to eight animals. INCB053914 was administered by oral gavage twice a day for 7 to 19 days (suspension in 5% dimethylacetamide with 0.5% w/v methylcellulose [Sigma-Aldrich]) or by subcutaneous continuous infusion (Alzet osmotic pumps; flow rate 0.5 μl/h for efficacy studies and 1.0 μl/h for pharmacodynamic studies).
# (§1) For the evaluation of the effects of INCB053914 on tumor growth, tumor-bearing mice (MOLM-16 xenograft, eight mice/group; KMS-12-BM xenograft, nine mice/group) were dosed orally twice a day with INCB053914 at doses ranging from 0 (vehicle) to 100 mg/kg for 15 days.
# Tumor volume was calculated in two dimensions using the equation: volume = [length × (width^2)] / 2, where the larger number was length and the smaller number was width. Effects on tumor growth were reported as percent tumor growth inhibition calculated as (1 − [treatment volume / control volume]) × 100, where control volume was the vehicle/untreated tumor volume on a given day and treatment volume was any treatment group tumor volume on that same day. Statistical significance of differences between treatment and vehicle controls was assessed using analysis of variance single factor test.
# [11] = Tolerability in tumor-bearing SCID mice; assay type: in vivo; conditions: MOLM-16 and KMS-12-BM tumor-bearing mice, oral twice a day up to 100 mg/kg
# Procedure: Non- GLP studies intended to characterize the pharmacology of INCB053914 were conducted in accordance with Incyte Corporation's Animal Use Protocols and DuPont Stine-Haskell SOPs. Animals were housed in barrier facilities fully accredited by the Association for Assessment and Accreditation of Laboratory Animal Care, International. All of the procedures were conducted under the supervision of a veterinarian and in accordance with the U.S. Public Health Service Policy on Humane Care and Use of Laboratory Animals. […] Analgesics and anesthetics could be used to minimize animal suffering and distress; neither were required during these studies. Animals on study were monitored twice daily and there were no unexpected deaths.
# as §1
# [12] = test system: Pfeiffer DLBCL cells; assay: In vitro proliferation of Pfeiffer DLBCL cells, single agents and combination; assay type: cell-based
# Procedure: Synergistic effects of INCB053914 in combination with INCB050465, cytarabine, or itacitinib, were assessed based on the Bliss independence model. In this model, the expected additive effect, with the assumption that concentration dependent effects of 2 drugs (A and B) are independent, is given by the equation EIND = EA + EB – EA •EB, where 0 ≤ EIND ≤ 1; EA and EB are the magnitudes of effects of A and B alone at given concentrations.
# The interaction between effects of A and B can be described by the equation Combination Index = EIND/ EOBS, where EOBS is the observed combined effect of A + B expressed as a probability (0 ≤ EOBS ≤ 1). If the point estimate of Combination Index and its upper 97.5% confidence limit are <1 then the combined effect is synergistic; if the 2-sided 95% confidence intervals (CI) encompass 1 then the combined effect is additive (ie, independent); if the point estimate of Combination Index and the lower 2.5% confidence limit are >1 then the combined effect of A + B are antagonistic.
# DDR2, sequence (Q16832 22-855): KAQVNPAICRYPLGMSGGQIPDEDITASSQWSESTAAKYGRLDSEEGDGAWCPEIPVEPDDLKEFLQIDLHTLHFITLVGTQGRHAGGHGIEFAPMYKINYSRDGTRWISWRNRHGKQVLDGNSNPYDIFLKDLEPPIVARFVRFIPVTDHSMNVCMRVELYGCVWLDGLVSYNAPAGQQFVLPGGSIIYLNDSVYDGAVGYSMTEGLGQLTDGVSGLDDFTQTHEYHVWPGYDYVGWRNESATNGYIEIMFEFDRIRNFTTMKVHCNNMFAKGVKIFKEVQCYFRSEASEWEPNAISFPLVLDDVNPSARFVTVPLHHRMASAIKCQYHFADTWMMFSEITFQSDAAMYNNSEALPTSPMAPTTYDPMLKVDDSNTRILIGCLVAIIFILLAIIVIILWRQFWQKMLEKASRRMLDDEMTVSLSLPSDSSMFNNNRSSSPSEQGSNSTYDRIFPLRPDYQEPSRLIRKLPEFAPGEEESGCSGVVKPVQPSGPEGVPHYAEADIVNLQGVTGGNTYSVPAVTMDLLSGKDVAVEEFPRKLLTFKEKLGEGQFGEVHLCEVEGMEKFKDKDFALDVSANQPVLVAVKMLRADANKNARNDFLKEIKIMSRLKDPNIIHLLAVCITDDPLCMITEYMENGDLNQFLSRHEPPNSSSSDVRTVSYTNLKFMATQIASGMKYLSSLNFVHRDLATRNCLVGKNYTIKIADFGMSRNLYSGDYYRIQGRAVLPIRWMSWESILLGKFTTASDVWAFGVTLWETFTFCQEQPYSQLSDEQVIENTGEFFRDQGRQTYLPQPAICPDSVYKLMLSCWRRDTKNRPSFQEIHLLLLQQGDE
# ERBB4, sequence (Q15303 26-1308): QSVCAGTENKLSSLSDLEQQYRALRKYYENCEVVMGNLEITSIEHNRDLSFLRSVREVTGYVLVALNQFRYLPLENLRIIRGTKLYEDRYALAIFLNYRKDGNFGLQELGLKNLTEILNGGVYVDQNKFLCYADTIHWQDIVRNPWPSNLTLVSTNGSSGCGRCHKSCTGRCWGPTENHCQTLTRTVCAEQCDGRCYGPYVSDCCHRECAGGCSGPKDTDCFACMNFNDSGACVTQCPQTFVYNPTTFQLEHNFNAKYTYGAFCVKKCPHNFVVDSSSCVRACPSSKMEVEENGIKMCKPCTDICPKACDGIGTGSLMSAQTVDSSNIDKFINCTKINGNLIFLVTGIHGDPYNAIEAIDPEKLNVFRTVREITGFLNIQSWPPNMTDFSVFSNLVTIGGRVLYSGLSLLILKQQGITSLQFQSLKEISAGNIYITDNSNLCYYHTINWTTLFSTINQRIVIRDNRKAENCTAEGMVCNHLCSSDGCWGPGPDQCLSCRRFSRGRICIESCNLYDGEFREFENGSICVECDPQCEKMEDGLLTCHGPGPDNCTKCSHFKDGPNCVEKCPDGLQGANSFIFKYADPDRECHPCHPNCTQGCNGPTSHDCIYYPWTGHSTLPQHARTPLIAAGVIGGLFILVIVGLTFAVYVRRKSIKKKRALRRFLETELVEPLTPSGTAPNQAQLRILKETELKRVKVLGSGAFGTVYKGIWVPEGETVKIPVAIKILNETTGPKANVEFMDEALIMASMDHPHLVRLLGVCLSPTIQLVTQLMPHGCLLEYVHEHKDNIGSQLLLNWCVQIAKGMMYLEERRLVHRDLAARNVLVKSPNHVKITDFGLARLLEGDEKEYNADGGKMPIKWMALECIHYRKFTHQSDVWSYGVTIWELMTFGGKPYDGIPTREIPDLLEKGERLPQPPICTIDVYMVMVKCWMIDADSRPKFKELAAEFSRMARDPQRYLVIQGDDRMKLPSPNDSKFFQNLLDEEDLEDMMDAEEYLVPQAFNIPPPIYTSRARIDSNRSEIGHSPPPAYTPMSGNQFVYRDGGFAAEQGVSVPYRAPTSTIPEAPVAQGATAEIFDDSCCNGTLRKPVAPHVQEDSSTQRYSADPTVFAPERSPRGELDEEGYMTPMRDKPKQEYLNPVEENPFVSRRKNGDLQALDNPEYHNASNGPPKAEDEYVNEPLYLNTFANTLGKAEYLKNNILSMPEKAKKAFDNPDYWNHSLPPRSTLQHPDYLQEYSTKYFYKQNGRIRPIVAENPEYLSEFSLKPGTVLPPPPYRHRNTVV
smiles,measurement,setting,value
"C[C@H]1CN(c2c(NC(=O)c3ccc(F)c(-c4c(F)cccc4F)n3)cnc3c2CC[C@H]3O)C[C@@H](N)[C@@H]1O.O=P(O)(O)O [INCB053914, N-((R)-4-((3R,4R,5S)-3-amino-4-hydroxy-5-methylpiperidin-1-yl)-7-hydroxy-6,7-dihydro-5H-cyclopenta[b]pyridin-3-yl)-6-(2,6-difluorophenyl)-5-fluoropicolinamide phosphate]",IC50,[1],> 20 µM
same,IC50,[2],> 20 µM
same,IC50,[3],> 20 µM
same,IC50,[4],> 20 µM
same,IC50,[5],> 20 µM
same,IC50,[6],> 20 µM
same,IC50,[7],> 20 µM
same,IC50,[8],> 20 µM
same,phosphorylation of downstream PIM kinase substrates (p70S6K/S6 and 4E-BP1),[9],inhibited the phosphorylation of downstream PIM kinase substrates (p70S6K/S6 and 4E-BP1) in a dose-dependent manner
same,tumor growth inhibition,[10]; 25 mg/kg twice a day,43%
same,tumor growth inhibition,[10]; 50 mg/kg twice a day,71%
same,tumor growth inhibition,[10]; 75 mg/kg twice a day,77%
same,tumor growth inhibition,[10]; 100 mg/kg twice a day,88%
same,tolerability,[11],tolerated at all doses tested
same,"proliferation of Pfeiffer cells, single agent",[12],inhibited
